# Reference: a melting point compilation (Tetko et al.; mined from patent text by program, amines drawn as free bases though some values may be those of a salt)
row,SMILES,melting point
1,Cc1cnc(-c2cc(-c3ccc(Cl)cc3)c(N3CCOCC3)s2)cc1OCC(F)(F)F,177 to 178 °C
2,CCOC(=O)/C=C(C)/C(F)=C/C=C(C)/C=C/c1c(Cl)cc(OC)c(C)c1C,126 to 128 °C
3,CCOC(=O)/C=C(\c1cccc(C(F)(F)F)c1)c1ccc(OC)c(OC)c1,72 to 74 °C
4,N#Cc1ccc(CNC(c2ccccc2)c2ccccc2)cc1,75 °C
5,c1cc(-c2csc(Cc3ncc[nH]3)n2)ccn1,178 to 180 °C
6,CCC(CC)N1C(=O)NCc2c1cc(C)nc2Oc1c(C)cc(C)cc1C,197 to 199 °C
7,CC(C)NC(=O)CN1CCN(CCc2ccc(-c3cccc(N)n3)cc2)CC1,163 to 165 °C
8,COc1cc(N2CCC(N3CCNCC3)CC2)ccc1Nc1ncc2ccc(-c3ccccc3OC)n2n1,65 to 67 °C
9,CC(C)Oc1cccc(=O)n1O,119 to 120 °C
10,O=c1[nH]c(Nc2ccccc2)nc2c1ncn2CCO,338 to 339 °C
11,CCCNc1nc(=O)c(C)cn1C1CC(N=[N+]=[N-])C(CO)O1 (stereo unspecified),146 °C
12,CCNC(=O)Nc1ccccc1,99 to 100 °C
13,COC[C@H]1C[C@@H](n2cnc3c(N[C@H]4CCN(c5ccc(C(F)(F)F)cn5)C4)ncnc32)[C@@H](O)[C@H]1O,166 to 168 °C
14,COc1c(Sc2ccccc2)c2cccnc2n1-c1ccccc1,86 to 87.5 °C
15,BrCc1c(Br)c(Br)c(CBr)c(Br)c1Br,268 to 271 °C
16,COc1ccc(/C=N/N2C=COC=C2)cc1OC1CCCC1,108 to 109 °C
17,c1ccc2c(c1)c1ccccc1n2C1CCCCO1 (stereo unspecified),131 to 133 °C
18,Cn1ncc2[nH]c3ccc(F)cc3c(=O)c21,301 °C
19,Cc1cn(C(C)(C)C(=O)NC(C)(C)C)nc1-c1ccccc1,71 to 75 °C
20,N#CCC(=O)NNC(=O)Nc1ccsc1CC(=O)Oc1ccc([N+](=O)[O-])cc1,132 to 135 °C
21,COc1cc(/C=C(\C)C(=O)O)c2cccc(C(C)C)c2c1O,195 to 196 °C
22,CN1C(c2ccc(Cl)cc2)=C(C#N)CC1C(F)(F)F (stereo unspecified),158 to 160 °C

row,SMILES,melting point
1,COc1cc2c(N3CCc4ccc(Cl)cc43)ncnc2c(OC)c1OC,139 to 143 °C
2,O=c1ccc2ccc(OCCCCl)cc2o1,100 to 102 °C
3,N#Cc1cc(C(=O)NNC(=O)c2occc2-c2ccccc2)ccc1O,216 to 217 °C
4,Nc1ccc(Sc2cc(F)ccc2CC(=O)O)cc1,151 to 155 °C
5,O=C1Cc2cc(Cl)cc(C(=O)c3ccc(F)cc3)c2N1,222 to 225 °C
6,CCc1c(C(=O)OC)[nH]c(=O)c(CC(C)C)[n+]1[O-],143 to 146 °C
7,N#Cc1ccc(C(=O)Nc2nc(-c3ccco3)c(C(=O)C3CCOCC3)s2)o1,222 to 223 °C
8,CCOC(=O)c1cc2c(=O)c3cc(C(C)=O)ccc3oc2nc1N,> 300 °C
9,FC(F)(F)Sc1ccc(C(F)(F)F)cc1,30 to 31 °C
10,Cc1ccc(N(Cc2ccc(N(C)C)cc2)C(=O)Nc2c(C(C)C)cccc2C(C)C)cc1,124 to 125 °C
11,CCn1c(=O)c2c(nc(/C=C/c3ccc(OC)cc3OC)n2C)n(CC)c1=O,196 to 197 °C
12,CC(=O)N1c2ccccc2C=Cc2ccccc21,121 °C
13,CCCCCS(=O)(=O)NC(=O)CCc1ccc(OCCOC)cc1OCC1CC1,81.7 to 82.8 °C
14,CCCc1c(O)c(C(C)=O)cc(C(C)=O)c1NCC,114 to 115 °C
15,O=C(CCNC(=O)[C@@H](O)Cc1ccccc1)OCc1ccccc1,34 to 38 °C
16,O=[N+]([O-])c1ccc(C=C2c3ccccc3C=Cc3ccccc32)cc1,152 °C
17,COc1cc(-c2cc(N)n(C)c3nc(N)nc(=O)c2-3)cc(OC)c1OC,> 300 °C
18,COc1cc(Nc2nccc(-c3cccc(NC(C)=O)c3)n2)cc(OC)c1OC,162 to 164 °C
19,CC(Cl)(Cl)C(NC(=O)c1cc(Cl)cc(Cl)c1)NC(=NC#N)Nc1ccc(Cl)nc1 (stereo unspecified),138 to 140 °C
20,C#CCn1cc(CO)c(C(F)(F)F)c1,45 °C
21,Nc1cnc2ccc(Cl)cc2n1,219 to 222 °C
22,CS(=O)c1ccc2c(c1)C=C(C(=O)O)C(C(F)(F)F)O2 (stereo unspecified),148 to 151 °C

row,SMILES,melting point
1,O=C1CC(/C=C/c2ccccc2)=Nc2ccccc2N1Cc1ccccc1,150 to 151 °C
2,CCC1(c2ccc(C(O)C(C)(C)C)cc2)OCCO1 (stereo unspecified),52 to 56 °C
3,Cc1c(C#N)cc(C(C)(C)C)c(O)c1C(=O)Nc1ccc(S(=O)(=O)c2ccc(Br)cc2)cc1C(F)(F)F,221 to 223 °C
4,CC(C)(C)OC(=O)NCCOc1ccccc1OCCBr,74 to 75 °C
5,CCC(C)(C)c1cc(C(C)c2cc(C(C)(C)CC)cc(C(C)(C)CC)c2O)c(O)c(C(C)(C)CC)c1,116 to 118 °C
6,Cc1ccccc1Oc1cccc(C(N)C(=O)O)c1O (stereo unspecified),170 to 173 °C
7,COc1ccc(C2(C#N)C=C(C#N)CCC2)cc1OC1CCCC1 (stereo unspecified),77 to 79 °C
8,CC1(C)CC2(CCNCC2)C(=O)O1,> 280 °C
9,O=S(=O)(C=CC(=Nc1ccccc1)Oc1ccccc1)c1ccccc1,110 to 116 °C
10,O=C1NCCc2c(CCc3ccccc3)[nH]c3cccc1c23,207 to 208 °C
11,O=C1NC(CO)Cc2c[nH]c3cccc1c23 (stereo unspecified),186 to 187 °C
12,CCOC(=O)c1cc2c(cn1)[nH]c1ccc(C(C)=O)cc12,290 to 305 °C
13,CCCCCc1nc(-c2ncn3c2COC(=O)c2c(Cl)cccc2-3)no1,110 to 112 °C
14,NC(=O)c1ccc(OC2CCN(c3ccncc3)C2)cc1 (stereo unspecified),298 to 300 °C
15,Brc1ccc(N=NSc2ccccc2)c2ccccc12,57 to 58 °C
16,CCOC(=O)c1c(-c2ccncc2)[nH]c(-c2ccncc2)c1-c1ccc([N+](=O)[O-])cc1,274 to 276 °C
17,CC1(C)COc2ccc(F)cc2C(O)(c2ccccn2)C1 (stereo unspecified),110 °C
18,COC(=O)c1ccc(Cc2cccc3ccc(C#N)cc23)c(OC)c1,138 to 140 °C
19,COc1ccccc1-n1nnc2cc(F)c(N3C(=O)C4=C(CCCC4)C3=O)cc21,83 to 87 °C
20,CCCC12CCC3C4CCC(=O)C=C4CCC3C1CCC2(C)O (stereo unspecified),134 to 136 °C
21,CCOC1CCC(=O)N1S(=O)(=O)C=Cc1ccccc1 (stereo unspecified),61 to 63 °C
22,O=C(Nc1ccc(N2CCSC2)c(F)c1)OCc1ccccc1,90 to 92 °C

row,SMILES,melting point
1,CC(C)(C)OC(=O)N1CCC(=CS(=O)(=O)NC(=O)c2cc(C(F)(F)F)cc(C(F)(F)F)c2)CC1,132 to 136 °C
2,COc1ccc2[nH]cc(C3CCN(CCCCN4C(=O)CC5(CCCC5)CC4=O)CC3)c2c1,150 °C
3,CCOC(=O)C(=O)N1CCC(Cc2ccc(F)cc2)CC1,72 to 74 °C
4,C[C@@H](Cn1ncc2ccc(OCCO)c(Br)c21)NC(=O)OCc1ccccc1,97 to 99 °C
5,CCc1nn(Cc2cc(O)n[nH]2)c(CC)c1Oc1cc(Cl)cc(Cl)c1,142 to 144 °C
6,Cc1cc(N(C)Cc2ccc(-c3ccc(C(F)(F)F)cc3)nc2C)cc(C)c1OCC(=O)O,137 to 138 °C
7,O=C(Nc1cccc(S(=O)(=O)N2CCCC2)c1)c1cnn2c(C(F)F)cc(-c3ccc(Cl)cc3)nc12,227 °C
8,Cc1cccc(Nn2cnc(C)c2C)c1,144 °C
9,Cc1nc2cc3c(cc2c(=O)n1COC(=O)C(C)(C)C)C(=O)CC3,203 to 205 °C
10,Fc1cccc(F)c1-c1ncc(-c2ccc(Br)cc2)cn1,193 to 194 °C
11,OCC(CO)Oc1cc(-c2ccccc2)on1,117 to 119 °C
12,Cc1oc2ccc(S(=O)(=O)C[N+](=O)[O-])cc2c(=O)c1C,206 to 209 °C
13,CS(=O)c1ccc(-n2cnc3ccc(-c4nnc(C5CC5)o4)cc32)cc1 (stereo unspecified),243 to 245 °C
14,COc1ccc2c(c1)C(=O)N(c1ccc3c(c1)CCCN3C)C2,123 to 127 °C
15,Cc1ccc(-c2ccccc2C(=O)N(C)NC(N)=O)cc1,217 to 218 °C
16,O=C1CCn2c1c(Sc1ccccc1)c1ccccc12,179 to 181 °C
17,O=C(CCCN1CCC(C(O)(c2ccccc2)c2ccccc2)CC1)c1ccc(N2CCCCC2)cc1,138 to 139 °C
18,Cc1ccc(C)c(OCCC(O)C(C)(C)C(=O)O)c1 (stereo unspecified),100 °C
19,COc1ccc2c(n1)CC(=O)N2CCCBr,82 to 83 °C
20,CCCCNc1c(C(=O)OCC)c(C)nc(N)c1[N+](=O)[O-],98 to 99 °C
21,CC(=CCO)c1ccc(C2CCCCCCC2)cc1,40 to 44 °C
22,Nc1nc(Cl)cc(Oc2ccc3c(C(=O)Nc4cccc(C(F)(F)F)c4)cnn3c2)n1,219 to 221 °C

row,SMILES,melting point
1,COc1cc(Nc2nccc(-c3sc(N4C=CC=NC4)nc3C)n2)ccc1N1CCOCC1,212 to 214 °C
2,NC(=O)N(O)CCOCc1cccs1,91 to 92 °C
3,CCCC1CCc2cc(NC(=O)OCC)ccc2O1 (stereo unspecified),94 °C
4,CNC(=O)c1ccccc1Nc1nc(Nc2ccc3c(c2)CCCC(=O)N3C)ncc1Br,238 to 240 °C
5,CCCCc1sc(C(N)=O)c2c1-c1c(cnn1C)CC2,119 to 121 °C
6,Cc1cccc(-c2[nH]c(C(C)C)nc2-c2ccc(F)c(-c3cc[nH]n3)c2)n1,195 to 198 °C
7,COc1ccc(-c2sc3c(c2CN(C)Cc2ccccc2)c(=O)c(C=O)cn3Cc2ccccc2OC)cc1,181 to 185 °C
8,C=Cc1cc(-c2cccnc2)no1,60 to 64 °C
9,COC(=O)C1=C(C)N=C(C)C(C(=O)OC)C(c2ccccc2)C1 (stereo unspecified),135 to 137 °C
10,Oc1ccc(C2=NCCO2)cc1,162 to 163 °C
11,CCC1CCC(=O)C=C1c1ccc(OCC(=O)OC(C)(C)C(=O)O)c(Cl)c1Cl (stereo unspecified),167 to 168 °C
12,COCc1cc(O)n[nH]1,123 to 125 °C
13,COc1ccc(S(=O)(=O)n2ccc3ccnc(-c4ccncc4)c32)cc1,193 to 194 °C
14,COc1cc(Nc2cc3c(cc2Nc2ccccc2)C(=O)NC3=O)cc(OC)c1OC,203 to 205 °C
15,CC(=O)N1CCC(c2ccc3c(c2OCc2ccccc2)CCCC3)CC1,108 to 110 °C
16,N#CC1Cc2ccc(Nc3ccncc3N)cc2C1 (stereo unspecified),98 to 100 °C
17,CN(C)c1ccc(C=O)c(O)c1,77 to 78 °C
18,CNS(=O)(=O)Oc1ccc2c(c1)C(C)(C)C(OC)O2 (stereo unspecified),89 to 91 °C
